Measured values from patent US20160355475A1, “NOVEL INDOLE DERIVATIVE COMPOUND AND PHARMACEUTICAL COMPOSITION COMPRISING THE SAME” (CHONG KUN DANG PHARMACEUTICAL CORP., priority 2014, published 2016).

Columns and labels:
HDAC6 human recombinant = molecular target: T1, HDAC6 human recombinant (Homo sapiens, UniProt Q9UBN7); experiment: HDAC6 enzyme activity inhibition (fluorimetric, in vitro); format: biochemical; conditions: 37° C., 60 minutes; tested at 0.1, 1, 10, 100 and 1000 nM
T1 construct: purchased Calbiochem 382180
T1 sequence (Q9UBN7 1-1215): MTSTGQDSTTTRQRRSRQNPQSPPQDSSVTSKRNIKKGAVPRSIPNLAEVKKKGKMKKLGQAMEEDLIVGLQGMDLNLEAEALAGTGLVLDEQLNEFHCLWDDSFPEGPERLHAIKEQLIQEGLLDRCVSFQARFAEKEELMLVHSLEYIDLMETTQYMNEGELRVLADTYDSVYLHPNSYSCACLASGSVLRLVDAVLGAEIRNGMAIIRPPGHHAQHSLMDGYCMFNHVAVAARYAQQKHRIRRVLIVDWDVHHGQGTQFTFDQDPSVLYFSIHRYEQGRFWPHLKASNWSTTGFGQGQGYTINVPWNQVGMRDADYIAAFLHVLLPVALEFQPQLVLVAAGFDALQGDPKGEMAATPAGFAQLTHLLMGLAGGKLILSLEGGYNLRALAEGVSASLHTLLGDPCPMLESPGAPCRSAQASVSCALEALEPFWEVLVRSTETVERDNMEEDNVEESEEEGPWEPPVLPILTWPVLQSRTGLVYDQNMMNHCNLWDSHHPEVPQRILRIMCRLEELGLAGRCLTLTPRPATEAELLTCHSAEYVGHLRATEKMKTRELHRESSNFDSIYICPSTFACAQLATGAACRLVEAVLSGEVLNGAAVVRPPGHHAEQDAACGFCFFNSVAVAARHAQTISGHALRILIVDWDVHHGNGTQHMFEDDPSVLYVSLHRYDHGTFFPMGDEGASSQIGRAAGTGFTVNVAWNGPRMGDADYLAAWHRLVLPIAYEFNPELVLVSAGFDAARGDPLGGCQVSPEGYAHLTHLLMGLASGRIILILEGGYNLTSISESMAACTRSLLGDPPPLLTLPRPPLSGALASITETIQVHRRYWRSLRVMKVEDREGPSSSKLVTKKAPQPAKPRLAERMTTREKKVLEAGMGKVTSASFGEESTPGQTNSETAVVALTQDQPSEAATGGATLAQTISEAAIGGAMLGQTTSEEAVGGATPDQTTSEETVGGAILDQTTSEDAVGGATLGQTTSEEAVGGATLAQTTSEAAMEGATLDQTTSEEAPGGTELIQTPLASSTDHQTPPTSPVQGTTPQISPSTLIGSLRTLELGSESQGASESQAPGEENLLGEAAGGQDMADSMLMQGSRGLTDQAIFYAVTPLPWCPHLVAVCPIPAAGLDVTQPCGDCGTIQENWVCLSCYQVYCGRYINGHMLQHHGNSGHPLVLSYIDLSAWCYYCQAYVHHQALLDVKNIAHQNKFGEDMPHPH
Experimental: (§1) 1. Experiment on Activities in HDAC Enzymes (HDAC1 and HDAC6)
(§2) Assays were performed using a HDAC1 fluorimetric drug discovery assay kit (Enzolifesciences: BML-AK511) and a HDAC6 human recombinant (Calbiochem: 382180). The assay mixture of the kit was treated with each of the compounds of the Examples at concentrations 100, 1000 and 10000 nM for HDAC1 assay and 0.1, 1, 10, 100 and 1000 nM for HDAC6 assay. The treated assay mixture was allowed to react at 37° C. for 60 minutes, and then was treated with a developer and allowed to stand at 37° C. for 30 minutes, followed by quantification of the fluorescence. In Table 17, lower HDAC6 values (μM) indicate higher HDAC6 inhibitory activities of the compounds. Also, because selective HDAC6 inhibitors should not inhibit HDAC1 (μM), higher HDAC1 values indicate higher HDAC6 selectivity of the compounds.

HDAC1 = molecular target: T2, HDAC1 (Homo sapiens, UniProt Q13547); experiment: HDAC1 enzyme activity inhibition (HDAC1 fluorimetric drug discovery assay kit); format: biochemical; conditions: 37° C., 60 minutes; tested at 100, 1000 and 10000 nM
T2 construct: purchased Enzolifesciences BML-AK511
Experimental: as §1, §2

T2 sequence (Q13547 whole entry): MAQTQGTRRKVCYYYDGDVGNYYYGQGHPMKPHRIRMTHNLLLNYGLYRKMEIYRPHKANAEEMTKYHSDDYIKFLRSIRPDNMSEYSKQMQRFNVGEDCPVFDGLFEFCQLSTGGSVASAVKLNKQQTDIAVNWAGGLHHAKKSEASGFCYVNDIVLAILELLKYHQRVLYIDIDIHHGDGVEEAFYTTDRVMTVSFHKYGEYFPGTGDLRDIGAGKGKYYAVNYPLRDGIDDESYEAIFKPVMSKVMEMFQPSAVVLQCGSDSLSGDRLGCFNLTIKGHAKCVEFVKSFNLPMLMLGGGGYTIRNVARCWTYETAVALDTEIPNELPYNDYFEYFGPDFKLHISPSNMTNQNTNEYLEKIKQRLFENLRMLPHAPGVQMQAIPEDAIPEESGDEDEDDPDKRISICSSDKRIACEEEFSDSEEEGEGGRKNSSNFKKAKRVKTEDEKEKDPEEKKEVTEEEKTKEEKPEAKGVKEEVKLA

SMILES	IC50 (HDAC6 human recombinant) [nM]	IC50 (HDAC1) [nM]
Cc1nccn1CCn1c(C)c(Cc2ccc(C(=O)NO)cc2)c2ccccc21 [Compound 201, N-hydroxy-4-((2-methyl-1-(2-(2-methyl-1H-imadazol-1-yl)ethyl)-1H-indol-3-yl)methyl)benzamide]	9	2470
Cc1c(Cc2ccc(C(=O)NO)cc2)c2ccccc2n1CCN1CCC(F)CC1 [Compound 553, 4-((1-(2-(4-Fluoropiperidin-1-yl)ethyl)-2-methyl-1H-indol-3-yl)methyl)-N-hydroxybenzamide]	39	8100
CCCCN1CCC(Cn2c(C)c(Cc3ccc(C(=O)NO)cc3)c3ccccc32)CC1 [Compound 558, 4-((1-((1-Butylpiperidin-4-yl)methyl)-2-methyl-1H-indol-3-yl)methyl)-N-hydroxybenzamide]	80	6110
Cc1c(Cc2ccc(C(=O)NO)cc2)c2ccccc2n1CCN1CCN(CC(C)(C)F)CC1 [Compound 564, 4-((1-(2-(4-(2-Fluoro-2-methylpropyl)piperazin-1-yl)ethyl)-2-methyl-1H-indol-3-yl)methyl)-N-hydroxybenzamide]	25	370
CCC(F)(CC)CN1CCC(CCn2c(C)c(Cc3ccc(C(=O)NO)cc3)c3ccccc32)CC1 [Compound 581, 4-((1-(2-(1-(2-Ethyl-2-fluorobutyl)piperidin-4-yl)ethyl)-2-methyl-1H-indol-3-yl)methyl)-N-hydroxybenzamide]	870	> 10000
Cc1c(Cc2ccc(C(=O)NO)cc2)c2cc(F)ccc2n1CC1CCN(CC(C)(C)O)CC1 [Compound 582, 4-((5-Fluoro-1-((1-(2-hydroxy-2-methylpropyl)piperidin-4-yl)methyl)-2-methyl-1H-indol-3-yl)methyl)-N-hydroxybenzamide]	27	2460
Cc1c(Cc2ccc(C(=O)NO)cc2)c2ccccc2n1CCN1CCCCC1 [Compound 585]	84	7750
Cc1c(Cc2ccc(C(=O)NO)cc2)c2ccccc2n1CCN1CCC(CO)C1 (stereo not drawn) [Compound 586, N-hydroxy-4-((1-(2-(3-(hydroxymethyl)pyrrolidin-1-yl)ethyl)-2-methyl-1H-indol-3-yl)methyl)benzamide]	16	2810
Cc1c(Cc2ccc(C(=O)NO)cc2)c2cc(F)ccc2n1CCN1CC[C@H](O)C1 [Compound 587, (S)-4-((5-fluoro-1-(2-(3-hydroxypyrrolidin-1-yl)ethyl)-2-methyl-1H-indol-3-yl)methyl)-N-hydroxybenzamide]	30	2810
Cc1c(Cc2ccc(C(=O)NO)cc2)c2cc(F)ccc2n1CC1CCN(CC(C)(C)F)CC1 [Compound 588, 4-((5-Fluoro-1-((1-(2-fluoro-2-methylpropyl)piperidin-4-yl)methyl)-2-methyl-1H-indol-3-yl)methyl)-N-hydroxybenzamide]	378	6730
Cc1c(Cc2ccc(C(=O)NO)cc2)c2cc(F)ccc2n1CCN1CC[C@H](F)C1 [Compound 589, (S)-4-((5-fluoro-1-(2-(3-fluoropyrrolidin-1-yl)ethyl)-2-methyl-1H-indol-3-yl)methyl)-N-hydroxybenzamide]	63	4640
Cc1c(Cc2ccc(C(=O)NO)cc2)c2cc(F)ccc2n1CCN1CCC(F)CC1 [Compound 590, 4-((5-Fluoro-1-(2-(4-fluoropiperidin-1-yl)ethyl)-2-methyl-1H-indol-3-yl)methyl)-N-hydroxybenzamide]	49	6120
Cc1c(Cc2ccc(C(=O)NO)cc2)c2ccccc2n1CCN1CCC(CF)C1 (stereo not drawn) [Compound 591, 4-((1-(2-(3-(Fluoromethyl)pyrrolidin-1-yl)ethyl)-2-methyl-1H-indol-3-yl)methyl)-N-hydroxybenzamide]	31	6610
Cc1c(Cc2ccc(C(=O)NO)cc2)c2ccccc2n1CCN1CC[C@H](O)C1 [Compound 592, (S)—N-hydroxy-4-((1-(2-(3-hydroxypyrrolidin-1-yl)ethyl)-2-methyl-1H-indol-3-yl)methyl)benzamide]	16	4950
Cc1c(Cc2ccc(C(=O)NO)cc2)c2ccccc2n1CCN1CC[C@H](F)C1 [Compound 593, (S)-4-((1-(2-(3-fluoropyrrolidin-1-yl)ethyl)-2-methyl-1H-indol-3-yl)methyl)-N-hydroxybenzamide]	32	7140
Cc1c(Cc2ccc(C(=O)NO)cc2)c2ccccc2n1CCN1CCCC(CO)C1 (stereo not drawn) [Compound 594, N-hydroxy-4-((1-(2-(3-(hydroxymethyl)piperidin-1-yl)ethyl)-2-methyl-1H-indol-3-yl)methyl)benzamide]	17	3140
CCCc1c(Cc2ccc(C(=O)NO)cc2)c2ccccc2n1CC1CCN(CC(C)(C)O)CC1 [Compound 601, N-hydroxy-4-((1-((1-(2-hydroxy-2-methylpropyl)piperidin-4-yl)methyl)-2-propyl-1H-indol-3-yl)methyl)benzamide]	98	5600
CCCc1c(Cc2ccc(C(=O)NO)cc2)c2ccccc2n1CC1CCN(CC(C)(C)F)CC1 [Compound 602, 4-((1-((1-(2-fluoro-2-methylpropyl)piperidin-4-yl)methyl)-2-propyl-1H-indol-3-yl)methyl)-N-hydroxybenzamide]	300	> 10000
Cc1c(Cc2ccc(C(=O)NO)cc2)c2ccccc2n1CC1CCN(Cc2cccc(-c3nccs3)c2)CC1 [Compound 603, N-hydroxy-4-((2-methyl-1-((1-(3-(thiazol-2-yl)benzyl)piperidin-4-yl)methyl)-1H-indol-3-yl)methyl)benzamide]	206	> 10000
Cc1c(Cc2ccc(C(=O)NO)cc2)c2ccccc2n1CC1CCN(CC(C)(C)O)CC1 [Compound 608, N-hydroxy-4-((1-((1-(2-hydroxy-2-methylpropyl)piperidin-4-yl)methyl)-2-methyl-1H-indol-3-yl)methyl)benzamide]	7	1070
Cc1c(Cc2ccc(C(=O)NO)cc2)c2ccccc2n1CC1CCN(CC2(F)COC2)CC1 [Compound 609, 4-((1-((1-((3-Fluorooxetan-3-yl)methyl)piperidin-4-yl)methyl)-2-methyl-1H-indol-3-yl)methyl)-N-hydroxybenzamide]	5	3630
Cc1c(Cc2ccc(C(=O)NO)cc2)c2ccccc2n1CC1CCN(CC2(F)CCN(C(=O)OC(C)(C)C)CC2)CC1 [Compound 610, Tert-butyl 4-fluoro-4-((4-((3-(4-(hydroxycarbamoyl)benzyl)-2-methyl-1H-indol-1-yl)methyl)piperidin-1-yl)methyl)piperidine-1-carboxylate]	79	> 10000
Cc1c(Cc2ccc(C(=O)NO)cc2)c2ccccc2n1CC1CCN(CC2(F)CCNCC2)CC1 [Compound 611, 4-((1-((1-((4-fluoropiperidin-4-yl)methyl)piperidin-4-yl)methyl)-2-methyl-1H-indol-3-yl)methyl)-N-hydroxybenzamide]	24	2930
CC(=O)N1CCC(F)(CN2CCC(Cn3c(C)c(Cc4ccc(C(=O)NO)cc4)c4ccccc43)CC2)CC1 [Compound 612, 4-((1-((1-((1-acetyl-4-fluoropiperidin-4-yl)methyl)piperidin-4-yl)methyl)-2-methyl-1H-indol-3-yl)methyl)-N-hydroxybenzamide]	61	9100
